According to patent US20220265830A1, “LONG-ACTING FORMULATIONS AND VEHICLES” (DURECT CORPORATION, priority 2019, published 2022):
≈ marks a conversion by molar mass, not a printed value. Like-named read-outs stand apart in the source and are kept apart here. Marks after values point to notes of the source that are not given here.

How the values were obtained:
[1] = Experimental, cited from earlier work
[2] = in vivo; cited from earlier work
[3] = Experimental; cited from earlier work
[4] = Experimental (Buprenorphine at 25° C.); cited from earlier work
physchem = conditions: BB
Protocol: Briefly, samples were prepared by mixing active agent and solvent and were tested at various time points after mixing and after storage at various temperatures. The samples were tested for the solubility of the active agent (mg/mL), calculated as the free base equivalent. Each data point is the average of two replicates unless otherwise specified.

[5] = cited from earlier work

Compound	Oral Half-life [2]	logP [3]	further results
O=C1CCc2ccc(OCCCCN3CCN(c4cccc(Cl)c4Cl)CC3)cc2N1 [Aripiprazole]	75 h	–	Water Solubility [1]: 0.00001%
CN1CC2c3ccccc3Oc3ccc(Cl)cc3C2C1 (centres unmarked) [Asenapine]	~24 h	–	–
Nc1ncn([C@@H]2O[C@H](CO)[C@@H](O)[C@H]2O)c(=O)n1 [Azacitidine]	~4 h	–	–
O=c1ccc2ccc(OCCCCN3CCN(c4cccc5sccc45)CC3)cc2[nH]1 [Brexpiprazoie]	91 h	–	–
C[C@@](Cc1ccc(O)c(O)c1)(NN)C(=O)O [Carbidopa]	~1.78 h	−1.9	Water Solubility [1]: 3.8 mg/mL; pKa [4]: 2.3
Nc1ncn([C@H]2C[C@H](O)[C@@H](CO)O2)c(=O)n1 [Decitabine]	0.51 ± 0.31 h	–	–
C[C@@H]1CCO[C@H]2Cn3cc(C(=O)NCc4ccc(F)cc4F)c(=O)c(O)c3C(=O)N12 [Dolutegravir]	14 h	2.2	Water Solubility ([1]; in words): Slightly soluble
COc1cc2c(cc1Cc1cccc(Cl)c1F)c(=O)c(C(=O)O)cn2[C@H](CO)C(C)C [Elvitegravir]	8.7 h	–	–
CCNC(=O)[C@@H]1CCCN1C(=O)[C@H](CCCNC(=N)N)NC(=O)[C@H](CC(C)C)NC(=O)[C@@H](CC(C)C)NC(=O)[C@H](Cc1ccc(O)cc1)NC(=O)[C@H](CO)NC(=O)[C@H](Cc1c[nH]c2ccccc12)NC(=O)[C@H](Cc1c[nH]cn1)NC(=O)[C@@H]1CCC(=O)N1 [Leuprolide]	~3 h	–	–
N[C@@H](Cc1ccc(O)c(O)c1)C(=O)O [Levodopa]	0.833 h	0.05	Water Solubility [1]: 5 mM
O=C1[C@@H]2[C@H]3CC[C@H](C3)[C@@H]2C(=O)N1C[C@@H]1CCCC[C@H]1CN1CCN(c2nsc3ccccc23)CC1 [Lurasidone]	18 to 37 h	–	–
O=C1CC[C@@]2(O)[C@H]3Cc4ccc(O)c5c4[C@@]2(CCN3CC2CC2)[C@H]1O5 [Naltrexone]	–	1.92	–
Cc1cc2c(s1)Nc1ccccc1N=C2N1CCN(C)CC1 [Olanzapine]	21 −54 hrs	–	–
Cc1nc2n(c(=O)c1CCN1CCC(c3noc4cc(F)ccc34)CC1)CCCC2O (centres unmarked) [Paliperidone]	~23 h	1.8	–
Cc1nnc(C(=O)NC(C)(C)c2nc(C(=O)NCc3ccc(F)cc3)c(O)c(=O)n2C)o1 [Raltegravir]	9 h	–	–
Cc1cc(/C=C/C#N)cc(C)c1Nc1ccnc(Nc2ccc(C#N)cc2)n1 [Rilpivirine]	34 to 55 h	4.86	Water Solubility [1]: <0.1 mg/mL
Cc1cn([C@H]2C=C[C@@H](CO)O2)c(=O)[nH]c1=O [Stavudine]	0.8 to 1.5 h	−0.72	Water Solubility ([1]; at 21° C.): 5-10 g/100 mL at
CC(C)OC(=O)[C@H](C)N[P@](=O)(CO[C@H](C)Cn1cnc2c(N)ncnc21)Oc1ccccc1 [TAF Free base, tenofovir alafenamide]	–	–	solubility at 4 days (physchem): 5 mg/mL (≈ 10.5 mM)
CC(C)OC(=O)[C@H](C)N[P@](=O)(CO[C@H](C)Cn1cnc2c(N)ncnc21)Oc1ccccc1.CC(C)OC(=O)[C@H](C)N[P@](=O)(CO[C@H](C)Cn1cnc2c(N)ncnc21)Oc1ccccc1.O=C(O)/C=C/C(=O)O [TAF Hemifumarate]	–	–	Solubility (mg/mL, Calculated as Free Base Equivalent) (ACN, 37° C./5 days): 11 mg/mL; Solubility (mg/mL, Calculated as Free Base Equivalent) (BB, 37° C., asterisk: taken at 4 days as opposed to 5 days): 3.9* mg/mL; Solubility (mg/mL, Calculated as Free Base Equivalent) (DCM, 37° C./5 days): 97 mg/mL; Solubility (mg/mL, Calculated as Free Base Equivalent) (DMSO, 37° C./5 days): 132 mg/mL; Solubility (mg/mL, Calculated as Free Base Equivalent) (NMP, 37° C./5 days): 160 mg/mL; Solubility (mg/mL, Calculated as Free Base Equivalent) (PC, 37° C./5 days): 22 mg/mL
Nc1ccn([C@H]2CC[C@@H](CO)O2)c(=O)n1 [Zalcitabine]	2 h	–	–
sucrose acetate isobutyrate [SAIB]	–	–	viscosity ([5]; at 37° C.): about 320,000 cP; viscosity ([5]; at 80° C.): about 600 cP; viscosity ([5]; at about 25° C.): about 2 million
